Assay results: patent US5431924A, “Anti-inflammatory composition derived from emu oil” (priority 1990, dated 1995)

System: male polyarthritic hooded rats
Experiment: Polyarthritis in male hooded rats: emu oil before and after uv exposure or benzoyl peroxide oxidation, with and without additives (Table 8)
Conditions: for anti-inflammatory activity in the rat polyarthritic model: emu oil after exposure to strong ultraviolet light, with or without additive, in words
[1] = Table 8, dose/kg 2 ml (EO), 20 mg (R.A., B-Carotene), 25 mg (Trolox-DE)

Row | SMILES | Mean changes, Thickness Rear Paws, Days 12-16 [1] | Mean changes, Thickness Rear Paws, Days 16-20 [1] | Mean changes, Thickness Tail, Days 12-16 [1] | Mean changes, Thickness Tail, Days 16-20 [1] | Mean changes, Wt Chge, Days 12-16 [1] | Mean changes, Wt Chge, Days 16-20 [1] | anti-inflammatory activity in the rat polyarthritic model
1 | CC(=O)OC/C=C(C)/C=C/C=C(C)/C=C/C1=C(C)CCCC1(C)C [R.A. in E-Pg, Retinyl acetate] | 0.16 mm | 0.30 mm | -0.12 mm | -0.10 mm | -02 g | +10 g | anti-inflammatory activity could be restored to the oil
2 | CC1=C(/C=C/C(C)=C/C=C/C(C)=C/C=C/C=C(C)/C=C/C=C(C)/C=C/C2=C(C)CCCC2(C)C)C(C)(C)CCC1 [β-carotene] | – | – | – | – | – | – | anti-inflammatory activity could be restored to the oil by the addition of retinyl acetate but not β-carotene
